What follows are molecules tested against T1, rat NaP2b (SLC34A2) (Rattus norvegicus, UniProt Q9JJ09) (assay: Inhibition of NaP2b-mediated Pi (33P) uptake in transfected HEK293 cells, rat NaP2b). Conditions: 33P Pi uptake, 0.1 mM phosphate, value given as pIC50 range.
T1 construct: host or cells: HEK293
T1 sequence (Q9JJ09 1-695): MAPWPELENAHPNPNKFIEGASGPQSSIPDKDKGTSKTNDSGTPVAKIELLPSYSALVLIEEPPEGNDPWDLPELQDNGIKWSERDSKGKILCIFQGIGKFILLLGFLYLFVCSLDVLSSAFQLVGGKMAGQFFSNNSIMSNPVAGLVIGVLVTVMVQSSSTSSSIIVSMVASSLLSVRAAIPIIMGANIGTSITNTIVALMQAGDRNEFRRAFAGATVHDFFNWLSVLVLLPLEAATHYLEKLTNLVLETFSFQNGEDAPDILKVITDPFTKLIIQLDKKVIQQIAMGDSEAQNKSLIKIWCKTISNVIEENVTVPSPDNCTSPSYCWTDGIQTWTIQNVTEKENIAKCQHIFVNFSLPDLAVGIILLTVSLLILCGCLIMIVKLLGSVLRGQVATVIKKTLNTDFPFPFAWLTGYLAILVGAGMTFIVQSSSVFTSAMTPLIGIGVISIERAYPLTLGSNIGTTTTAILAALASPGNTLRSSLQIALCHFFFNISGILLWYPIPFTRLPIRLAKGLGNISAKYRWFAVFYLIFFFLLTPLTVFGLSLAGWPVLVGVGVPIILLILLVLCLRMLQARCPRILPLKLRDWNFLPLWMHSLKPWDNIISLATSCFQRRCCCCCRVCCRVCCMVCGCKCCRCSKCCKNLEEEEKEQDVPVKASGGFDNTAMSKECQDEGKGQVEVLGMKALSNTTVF
Type: cell-based
Procedure, shortened: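 The cells transiently expressed NaP2b after Lipofectamine transfection. Each compound was run in duplicate over twelve concentrations, 0.1 nM–30 uM.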

SMILES	IC50
CC(=O)N1CCN(Cc2cccc(C(=O)Nc3ccc(N4CCCCC4)cc3-c3cc(C(=O)NCc4cccc(C(F)(F)F)c4)ccn3)n2)CC1 [Example 58, 6-((4-Acetylpiperazin-1-yl)methyl)-N-(4-(piperidin-1-yl)-2-(4-((3-(trifluoromethyl)benzyl)carbamoyl)pyridin-2-yl)phenyl)picolinamide]	1 to 7.94 µM
COCCNC(=O)C1CCCN(Cc2cccc(C(=O)Nc3ccc(N4CCCCC4)cc3-c3cc(C(=O)NCc4cccc(C(F)(F)F)c4)ccn3)c2)C1 (stereo in doubt) [Example 12.1, (S)-2-(2-(3-((3-((2-Methoxyethyl)carbamoyl)piperidin-1-yl)methyl)benzamido)-5-(piperidin-1-yl)phenyl)-N-(3-(trifluoromethyl)benzyl)isonicotinamide]	1 to 7.94 µM
O=C(O)CCSCc1cccc(C(=O)Nc2ccc(N3CCCCC3)cc2-c2cc(C(=O)NCc3ccc(Oc4ccccc4)cc3)ccn2)c1 [Example 1.40]	1 to 7.94 µM
CN(Cc1nccn1C)C(=O)c1cccc(C(=O)Nc2ccc(N3CCCCC3)cc2-c2cc(C(=O)NCc3cccc(C(F)(F)F)c3)ccn2)c1 [Example 4.25]	1 to 7.94 µM
O=C(O)CCSCc1cccc(C(=O)Nc2ccc(N3CCCCC3)cc2-c2cc(C(=O)NCc3ccc(C(F)(F)F)cc3)ccn2)c1 [Example 1.47]	1 to 7.94 µM
O=C(O)CCSCc1cccc(C(=O)Nc2ccc(N3CCCCC3)cc2-c2cc(C(=O)NCc3ccc(OC(F)(F)F)c(F)c3)ccn2)c1 [Example 1.26]	1 to 7.94 µM
O=C(O)c1ccc(SCc2cccc(C(=O)Nc3ccc(N4CCCCC4)cc3-c3cc(C(=O)NCc4cccc(C(F)(F)F)c4)ccn3)c2)nc1 [Example 8.15]	1 to 7.94 µM
O=C(O)CCSCc1cccc(C(=O)Nc2ccc(N3CCCCC3)cc2-c2cc(C(=O)NCc3cccc(C(F)(F)F)c3)c(Cl)cn2)c1 [Example 90]	10 to 31.6 µM
O=C(O)CCc1ccc(SCc2cccc(C(=O)Nc3ccc(N4CCCCC4)cc3-c3cc(C(=O)NCc4cccc(C(F)(F)F)c4)ccn3)c2)cc1 [Example 8.8]	< 1 µM
O=C(O)CCSCc1cccc(C(=O)Nc2ccc(N3CCCCC3)cc2-c2cc(C(=O)NCc3ccc(C(F)(F)F)nc3)ccn2)c1 [Example 1.2, 3-((3-((4-(Piperidin-1-yl)-2-(4-(((6-(trifluoromethyl)pyridin-3-yl)methyl)carbamoyl)pyridin-2-yl)phenyl)carbamoyl)benzyl)thio)propanoic acid]	10 to 31.6 µM
CC(=O)N1CCCN(C(=O)CCOCCOCCOCCOCCSCc2cccc(C(=O)Nc3ccc(N4CCCCC4)cc3-c3cc(C(=O)NCc4cccc(C(F)(F)F)c4)ccn3)c2)CC1 [Example 153, 2-(2-(3-(17-(4-acetyl-1,4-diazepan-1-yl)-17-oxo-5,8,11,14-tetraoxa-2-thiaheptadecyl)benzamido)-5-(piperidin-1-yl)phenyl)-N-(3-(trifluoromethyl)benzyl)isonicotinamide]	10 to 31.6 µM
O=C(O)Cc1cccc(SCc2cccc(C(=O)Nc3ccc(Cl)cc3-c3cc(C(=O)NCc4cccc(C(F)(F)F)c4)ccn3)c2)c1 [Example 119]	< 1 µM
CN(CCc1ccccn1)C(=O)c1cccc(C(=O)Nc2ccc(N3CCCCC3)cc2-c2cc(C(=O)NCc3cccc(C(F)(F)F)c3)ccn2)c1 [Example 110]	1 to 7.94 µM
Cc1cc(C(=O)NCc2cccc(C(F)(F)F)c2)cc(-c2cc(N3CCCCC3)ccc2NC(=O)c2cccc(CSCCC(=O)O)c2)n1 [Example 85]	1 to 7.94 µM
CCN(CC)c1ccc(NC(=O)c2cccc(CCCOCCOCCOCCOCCNS(=O)(=O)c3ccc(C(=O)N(C)CCOCCOCCOCCOCCOCCOCCOC)cc3)c2)c(-c2cc(C(=O)NCc3cccc(C(F)(F)F)c3)ccn2)c1 [Example 287, 2-(2-(3-(1-(4-(2,5,8,11,14,17,20-heptaoxadocosan-22-yl(methyl)carbamoyl)phenylsulfonamido)-3,6,9,12-tetraoxapentadecan-15-yl)benzamido)-5-(diethylamino)phenyl)-N-(3-(trifluoromethyl)benzyl)isonicotinamide]	1 to 7.94 µM
O=C(NCc1cccc(C(F)(F)F)c1)c1ccnc(-c2cc(N3CCCCC3)ccc2NC(=O)c2cccc(C(=O)N(CCN3CCOCC3)Cc3ccccc3)c2)c1 [Example 4.12, N1-Benzyl-N1-(2-morpholinoethyl)-N3-(4-(piperidin-1-yl)-2-(4-((3-(trifluoromethyl)benzyl)carbamoyl)pyridin-2-yl)phenyl)isophthalamide]	1 to 7.94 µM
O=C(O)CCSCc1cccc(C(=O)Nc2ccc(N3CCCCC3)cc2-c2cc(C(=O)Nc3ccc4ncsc4c3)ccn2)c1 [Example 1.20]	10 to 31.6 µM

Results, then the molecule that gave them:

IC50	SMILES
1 to 7.94 µM	O=C(O)CCSCc1cccc(C(=O)Nc2ccc(N3CCCCC3)cc2-c2cc(C(=O)NCc3cccc4ccccc34)ccn2)c1 [Example 1.12]
10 to 31.6 µM	O=C(NCCOCCO)c1cccc(C(=O)Nc2ccc(N3CCCCC3)cc2-c2cc(NCc3cccc(C(F)(F)F)c3)ncn2)c1 [Example 64, N1-(2-(2-Hydroxyethoxy)ethyl)-N3-(4-(piperidin-1-yl)-2-(6-((3-(trifluoromethyl)benzyl)amino)pyrimidin-4-yl)phenyl)isophthalamide]
1 to 7.94 µM	CN(CCN1CCOCC1)C(=O)Cc1cccc(SCc2cccc(C(=O)Nc3ccc(N4CCCCC4)cc3-c3cc(C(=O)NCc4cccc(C(F)(F)F)c4)ccn3)c2)c1 [Example 136, 2-(2-(3-((3-(2-(methyl(2-morpholinoethyl)amino)-2-oxoethyl)phenylthio)methyl)benzamido)-5-(piperidin-1-yl)phenyl)-N-(3-(trifluoromethyl)benzyl)isonicotinamide]
1 to 7.94 µM	CN(Cc1cccc(C(F)(F)F)c1)C(=O)c1ccnc(-c2cc(N3CCCCC3)ccc2NC(=O)c2cccc(CSCCC(=O)O)c2)c1 [Example 1.37]
10 to 31.6 µM	CC(C)C(=O)NC(CSCc1cccc(C(=O)Nc2ccc(N3CCCCC3)cc2-c2cc(C(=O)NCc3cccc(C(F)(F)F)c3)ccn2)c1)C(=O)O (stereo not drawn) [Example 8.12]
10 to 31.6 µM	O=C(O)CCSCc1cccc(C(=O)Nc2ccc(N3CCCCC3)cc2-c2cc(C(=O)NCc3ccc(N4CCOCC4)cc3)ccn2)c1 [Example 78, 3-(3-(2-(4-(4-Morpholinobenzylcarbamoyl)pyridin-2-yl)-4-(piperidin-1-yl)-phenylcarbamoyl)benzylthio) propanoic acid]
10 to 31.6 µM	COCCNC(=O)N1CCN(CCN(C)Cc2cccc(C(=O)Nc3ccc(N4CCCCC4)cc3-c3cc(C(=O)NCc4cccc(C(F)(F)F)c4)ccn3)c2)CC1 [Example 208, N-(2-methoxyethyl)-4-(2-(methyl(3-(4-(piperidin-1-yl)-2-(4-(3-(trifluoromethyl)benzylcarbamoyl)pyridin-2-yl)phenylcarbamoyl)benzyl)amino)ethyl)piperazine-1-carboxamide]
1 to 7.94 µM	CCCN(CC)c1ccc(NC(=O)c2cccc(C(=O)N(C)CCN3CCOCC3)c2)c(-c2cc(C(=O)NCc3cccc(C(F)(F)F)c3)ccn2)c1 [Example 128, N1-(2-(4-((3-(trifluoromethyl)benzyl)carbamoyl)pyridin-2-yl)-4-(ethyl(propyl)amino)phenyl)-N3-methyl-N3-(2-morpholinoethyl)isophthalamide]
10 to 31.6 µM	O=C(O)CCSCc1cccc(C(=O)Nc2ccc(N3CCCCC3)cc2-c2cc(NCCc3cccc(C(F)(F)F)c3)ccn2)c1 [Example 70, 3-((3-((4-(Piperidin-1-yl)-2-(4-((3-(trifluoromethyl)phenethyl)amino)pyridin-2-yl)phenyl)carbamoyl)benzyl)thio)propanoic acid]
1 to 7.94 µM	O=C(O)CCSCc1cccc(C(=O)Nc2ccc(N3CCCCC3)cc2-c2cc(C(=O)NCc3cccc(N4CCCCC4)c3)ccn2)c1 [Example 1.15]
1 to 7.94 µM	O=C(O)CCCc1ccc(SCc2cccc(C(=O)Nc3ccc(N4CCCCC4)cc3-c3cc(C(=O)NCc4cccc(C(F)(F)F)c4)ccn3)c2)cc1 [Example 8.9]
1 to 7.94 µM	O=C(O)CCSCc1cccc(C(=O)Nc2ccc(N3CCCCC3)cc2-c2cc(C(=O)NCc3ccc(OC(F)(F)F)cc3)ccn2)c1 [Example 1.44]
10 to 31.6 µM	CC(=O)N[C@H]1CCN(C(=O)c2cccc(C(=O)Nc3ccc(N4CCCCC4)cc3-c3cc(C(=O)NCc4cccc(C(F)(F)F)c4)ccn3)c2)C1 [Example 4.9, (S)-2-(2-(3-(3-Acetamidopyrrolidine-1-carbonyl)benzamido)-5-(piperidin-1-yl)phenyl)-N-(3-(trifluoromethyl)benzyl)isonicotinamide]
1 to 7.94 µM	CN(CCOCCO)C(=O)c1cccc(C(=O)Nc2ccc(N3CCCCC3)cc2-c2cc(C(=O)NCc3cccc(C(F)(F)F)c3)ccn2)c1 [Example 4.3, N1-(2-(2-Hydroxyethoxy)ethyl)-N1-methyl-N3-(4-(piperidin-1-yl)-2-(4-((3-(trifluoromethyl)benzyl)carbamoyl)pyridin-2-yl)phenyl)isophthalamide]
1 to 7.94 µM	CC(C)OCCOc1ccc(NC(=O)c2cccc(C(=O)N(C)CCN3CCOCC3)c2)c(-c2cc(C(=O)NCc3cccc(C(F)(F)F)c3)ccn2)c1 [Example 101]
1 to 7.94 µM	O=C(O)CCSCc1cccc(C(=O)Nc2ccc(N3CCCCC3)cc2-c2cc(C(=O)NCc3cccc(-c4ccccc4)c3)ccn2)c1 [Example 1.42]

Reference: patent US20140023611A1 (priority 2010, published 2014)
